Assays:
[1] = Rat pharmacokinetic experiment; type: in vivo; details: po, male SD rats, gavage (p.o.), 10 mg/kg, plasma
Source text: TEST EXAMPLE 3 PHARMACOKINETIC EXPERIMENT OF COMPOUNDS
Pharmacokinetic test of compounds T-32/T-105/T-253/T-272/T-273/T-277 of the present invention.
Experimental Protocol of Rat Pharmacokinetics
• (1) Required animals: healthy adult SD rats, male, 3 rats, 6-8 weeks old; weighing 200-300 g. • (2) Required equipments: analytical balance, animal weight scale, magnetic stirrer, refrigerated centrifuge, single-channel manual pipettor, etc. • (3) Required reagents: EDTA-Na2 anticoagulant, etc. 11.2 g of EDTA-Na2 was weighed and placed in a reagent flask, 100 mL of normal saline was added, and the flask was shook to completely dissolve it. After the preparation was completed, it was divided into 1.5 mL centrifuge tubes with 20 uL each for whole blood sample collection. • (3) About 10 mg of the sample to be tested was accurately weighed, 5% DMSO after conversion was added to dissolve, then 30% PEG400 and 65% (10% Hp-β-CD in PBS) were added for sonication, and vortex-mixed evenly to obtain a solution with a concentration of 1 mg/mL which is freshly prepared before use. • (4) 0.1 mL of sample was taken into a 1.5 mL centrifuge tube and stored at −80° C. for concentration analysis of drug administration solution. • (5) Animals were kept in rat cages, and fasted (not less than 10 h) from the day before the test(but water was allowed). The animals were separately weighed and marked at the tail on the day of the test. Blank blood was collected before administration. The blood was collected from tail vein. • (6) Route of administration: gavage (p.o.); dosage: 10 mg/kg; administration volume: 10 mL/kg. • (7) Operation process: Use the left hand with anti-bite gloves to catch the rat, make it stand upright, stretch the 16th gastric lavage needle from the throat of the mouth, insert the needle when feeling out no obvious resistance, and then inject the drug into the stomach. • (8) 0.2 ml of whole blood was collected from the tested animals and added into EDTA-Na2 anticoagulant tubes before administration and 0.5 h, 1 h, 2 h, 4 h, 6 h, 8 h, 12 h and 24 h after administration respectively. The tubes were reversed up and down for 3-4 times and mixed evenly, centrifuged at 4° C. at 10000 g for 5 min to separate plasma, and stored at −80° C. for testing. The blood was collected from tail vein. • (9) LC-MS/MS method was established to determine the concentration of original drug in plasma, the blood drug concentration-time curve was drawn, and the main pharmacokinetic parameters were calculated by non-compartment model. • (10) Pharmacokinetic parameters of T-32/T-105/T-253/T-272/T-273/T-277 were shown below in Table 2.

[2] = test system: human pleural mesothelioma cells NCI-H226; assay: Cell anti-proliferation experiment (CCK8), NCI-H226; type: cell-based
Summary of the method: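 Viability was measured by CCK-8 (3 h, A450) after 3-day treatment with 0.15–333.33 nM compound in 0.1% DMSO medium. Curve-fitted IC50 was based on viability normalised to no-drug and cell-free controls.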

Q: For `C[C@H](NC(=O)c1ccc2c(c1)c1cnccc1c(=O)n2-c1ccc(C(F)(F)F)cc1)c1ccccn1` [Example T-253], which AUC(0-t) [1] is on record?
A: 39200 ng·h/mL

Q: And the Cmax [1]?
A: 2640 ng/mL

Q: And the MRT last [1]?
A: 9.78 h

Q: What about the Tmax [1] of the same compound?
A: 4.7 h

Q: And the IC50 [2]?
A: ≤ 1000 nM

Q: Which AUC(0-t) [1] does the source give for `C[C@H](NC(=O)c1ccc2c(c1)c1nn(C)cc1c(=O)n2-c1ccc(C(F)(F)F)cc1)c1ccccn1` [Example T-105] here?
A: 53900 ng·h/mL

Q: What about the Cmax [1] of the same compound?
A: 3870 ng/mL

Q: And the MRT last [1]?
A: 9.48 h

Q: And the Tmax [1]?
A: 4 h

Q: And the IC50 [2]?
A: ≤ 1000 nM

Q: For `Cc1cc(=O)n(-c2ccc(C(F)(F)F)cc2)c2ccc(C(=O)N[C@@H](C)c3ccccn3)cc12` [Example T-277], which AUC(0-t) [1] is on record?
A: 26900 ng·h/mL

Q: And the Cmax [1]?
A: 2650 ng/mL

Q: What about the MRT last [1] of the same compound?
A: 7.28 h

Q: And the Tmax [1]?
A: 4.7 h

Q: And the IC50 [2]?
A: ≤ 1000 nM

Q: With `CNS(=O)(=O)c1ccc2c(c1)c1cn(C)nc1c(=O)n2-c1ccc(C(F)(F)F)cc1` [Example T-32] as the compound, how does the AUC(0-t) [1] read?
A: 22200 ng·h/mL

Q: And the Cmax [1]?
A: 2220 ng/mL

Q: What about the MRT last [1] of the same compound?
A: 6.88 h

Q: What about the Tmax [1] of the same compound?
A: 2.5 h

Q: And the IC50 [2]?
A: ≤ 1000 nM

Q: Which results are given for `C[C@H](NC(=O)c1ccc2c(c1)c1ccccc1c(=O)n2-c1ccc(C(F)(F)F)cc1)c1ccccn1` [Example T-272]?
A: AUC(0-t) [1]: 21200 ng·h/mL; Cmax [1]: 1410 ng/mL; MRT last [1]: 9.96 h; Tmax [1]: 5.3 h; IC50 [2]: ≤ 1000 nM

— patent US20250154105A1, “POLYCYCLIC COMPOUND AND USE THEREOF” (TYK MEDICINES, INC., priority 2021, published 2025)
